{"source": "patent US20250145665A1", "about": "“MACROCYCLIC PEPTIDES USEFUL AS MODULATORS OF TNF ALPHA” (Bristol-Myers Squibb Company, priority 2023, published 2025)", "note": "Starred links: 1 amine or outer side, 2 acyl side, 3 side chain; linkers in the order of their positions; H or OH if unused. Positions of bridges follow the written chain, without caps; N, C: chain ends. Non-standard residues stand in square brackets, D forms with d. Residues, ends and D or L forms follow the SMILES beside them. X77 = Cc1ccc(C(=O)O)cc1C(=O)Nc1ccc(-c2ccc(C[C@H](N[*:1])C(=O)[*:2])cc2)cc1; Bip(4'-COOH) = N[C@@H](Cc1ccc(-c2ccc(C(=O)O)cc2)cc1)C(=O)O; Bip(4'-NHAc) = CC(=O)Nc1ccc(-c2ccc(C[C@H](N)C(=O)O)cc2)cc1; Ala(imidazol-2-yl) = N[C@@H](Cc1ncc[nH]1)C(=O)O; Ala(morpholin-4-yl) = N[C@@H](CN1CCOCC1)C(=O)O; Phe(3-CONH2) = NC(=O)c1cccc(C[C@H](N)C(=O)O)c1; Bip = N[C@@H](Cc1ccc(-c2ccccc2)cc1)C(=O)O; Ala(2-furyl) = N[C@@H](Cc1ccco1)C(=O)O; 2Pal = N[C@@H](Cc1ccccn1)C(=O)O; 2Thi = N[C@@H](Cc1cccs1)C(=O)O; Cha = N[C@@H](CC1CCCCC1)C(=O)O; Chg = N[C@H](C(=O)O)C1CCCCC1; Sar = CNCC(=O)O", "data": [{"target": "TNFα (Homo sapiens, UniProt P01375)", "sequence (P01375 77-233 limits assumed)": "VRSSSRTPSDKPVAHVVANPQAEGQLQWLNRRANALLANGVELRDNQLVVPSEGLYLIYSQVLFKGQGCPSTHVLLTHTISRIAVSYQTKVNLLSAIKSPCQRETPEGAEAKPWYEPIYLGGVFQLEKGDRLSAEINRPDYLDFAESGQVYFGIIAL", "assay": "TNF-Induced HEK-Blue Assay", "assay_type": "cell-based", "details": "not given", "units": {"IC50": "nM"}, "values": [{"smiles": "CC(=O)Nc1ccc(-c2ccc(C[C@@H]3NC(=O)[C@H](Cc4ccc(-c5ccccc5)cc4)NC(=O)[C@H](CN4CCOCC4)NC(=O)CSC[C@@H](C(=O)NCC(N)=O)NC(=O)[C@H](CC(C)C)NC(=O)[C@H](Cc4cccc(C(N)=O)c4)NC(=O)[C@H](C4CCCCC4)NC(=O)[C@@H]4CCCN4C(=O)[C@H](C(C)C)NC(=O)[C@@H](CCCNC(=N)N)NC(=O)[C@H](CC(=O)O)NC(=O)[C@H](Cc4ccc(O)cc4)NC(=O)CN(C)C3=O)cc2)cc1", "note": "[Example 460] ({CH2CO}-[Ala(morpholin-4-yl)][Bip][Bip(4'-NHAc)][Sar]YD[dR]VP[Chg][Phe(3-CONH2)]LCG-NH2; thioether N-13)", "IC50": "< 50"}]}, {"target": "TNFα (Homo sapiens, UniProt P01375)", "assay": "TNF-Induced HEK-Blue Assay", "assay_type": "cell-based", "details": "HEK-Blue-CD40L cells, NF-kB-driven secreted alkaline phosphatase reporter; TNFα 0.5 ng/ml; 18 h; read-out: TNF induced HEK-Blue assay IC50 value", "units": {"IC50": "nM"}, "values": [{"smiles": "CC[C@H](C)[C@@H]1NC(=O)[C@@H](CCCNC(=N)N)NC(=O)[C@H](CC(=O)O)NC(=O)[C@H](Cc2cnc[nH]2)NC(=O)CN(C)C(=O)[C@H](Cc2ccc(-c3ccc(NC(=O)c4cc(C(=O)O)ccc4C)cc3)cc2)NC(=O)[C@H](Cc2ccc(-c3ccccc3)cc2)NC(=O)[C@H](CC2CCCCC2)NC(=O)CSC[C@@H](C(=O)NCC(N)=O)NC(=O)[C@H](CC(C)C)NC(=O)[C@H](Cc2cnc[nH]2)NC(=O)[C@H](C(C)C)NC(=O)[C@@H]2CCCN2C1=O", "note": "[Example 450] ({CH2CO}-[Cha][Bip][X77][Sar]HD[dR]IPVHLCG-NH2; thioether N-13)", "IC50": "< 50"}, {"smiles": "CC(=O)Nc1ccc(-c2ccc(C[C@@H]3NC(=O)[C@H](Cc4ccc(-c5ccccc5)cc4)NC(=O)[C@H](CC4CCCCC4)NC(=O)CSC[C@@H](C(=O)NCC(N)=O)NC(=O)[C@H](CC(C)C)NC(=O)[C@H](Cc4ncc[nH]4)NC(=O)[C@H](C(C)C)NC(=O)[C@@H]4CCCN4C(=O)[C@H](C(C)C)NC(=O)[C@@H](CCCNC(=N)N)NC(=O)[C@H](CC(=O)O)NC(=O)[C@H](Cc4ccco4)NC(=O)CN(C)C3=O)cc2)cc1", "note": "[Example 451] ({CH2CO}-[Cha][Bip][Bip(4'-NHAc)][Sar][Ala(2-furyl)]D[dR]VPV[Ala(imidazol-2-yl)]LCG-NH2; thioether N-13)", "IC50": "< 50"}, {"smiles": "CC(=O)Nc1ccc(-c2ccc(C[C@@H]3NC(=O)[C@H](Cc4ccc(-c5ccccc5)cc4)NC(=O)[C@H](CN4CCOCC4)NC(=O)CSC[C@@H](C(=O)NCC(N)=O)NC(=O)[C@H](CC(C)C)NC(=O)[C@H](Cc4cccs4)NC(=O)[C@H](C4CCCCC4)NC(=O)[C@@H]4CCCN4C(=O)[C@H](C(C)C)NC(=O)[C@@H](CCCNC(=N)N)NC(=O)[C@H](CC(=O)O)NC(=O)[C@H](Cc4ccccn4)NC(=O)CN(C)C3=O)cc2)cc1", "note": "[Example 452] ({CH2CO}-[Ala(morpholin-4-yl)][Bip][Bip(4'-NHAc)][Sar][2Pal]D[dR]VP[Chg][2Thi]LCG-NH2; thioether N-13)", "IC50": "50 to 200"}, {"smiles": "CC(=O)Nc1ccc(-c2ccc(C[C@@H]3NC(=O)[C@H](Cc4ccc(-c5ccc(C(=O)O)cc5)cc4)NC(=O)[C@H](CN4CCOCC4)NC(=O)CSC[C@@H](C(=O)NCC(N)=O)NC(=O)[C@H](CC(C)C)NC(=O)[C@H](Cc4cccs4)NC(=O)[C@H](C(C)C)NC(=O)[C@@H]4CCCN4C(=O)[C@H](C(C)C)NC(=O)[C@@H](CCCNC(=N)N)NC(=O)[C@H](CC(=O)O)NC(=O)[C@H](Cc4cnc[nH]4)NC(=O)CN(C)C3=O)cc2)cc1", "note": "[Example 453] ({CH2CO}-[Ala(morpholin-4-yl)][Bip(4'-COOH)][Bip(4'-NHAc)][Sar]HD[dR]VPV[2Thi]LCG-NH2; thioether N-13)", "IC50": "< 50"}, {"smiles": "CC(=O)Nc1ccc(-c2ccc(C[C@@H]3NC(=O)[C@H](Cc4ccc(-c5ccccc5)cc4)NC(=O)[C@H](CN4CCOCC4)NC(=O)CSC[C@@H](C(=O)NCC(N)=O)NC(=O)[C@H](CC(C)C)NC(=O)[C@H](Cc4ccccc4)NC(=O)[C@H](C4CCCCC4)NC(=O)[C@@H]4CCCN4C(=O)[C@H](C(C)C)NC(=O)[C@@H](CCCNC(=N)N)NC(=O)[C@H](CC(=O)O)NC(=O)[C@H](Cc4ccccn4)NC(=O)CN(C)C3=O)cc2)cc1", "note": "[Example 454] ({CH2CO}-[Ala(morpholin-4-yl)][Bip][Bip(4'-NHAc)][Sar][2Pal]D[dR]VP[Chg]FLCG-NH2; thioether N-13)", "IC50": "< 50"}, {"smiles": "CC(=O)Nc1ccc(-c2ccc(C[C@@H]3NC(=O)[C@H](Cc4ccc(-c5ccccc5)cc4)NC(=O)[C@H](CN4CCOCC4)NC(=O)CSC[C@@H](C(=O)NCC(N)=O)NC(=O)[C@H](CC(C)C)NC(=O)[C@H](Cc4cccc(C(N)=O)c4)NC(=O)[C@H](C(C)C)NC(=O)[C@@H]4CCCN4C(=O)[C@H](C(C)C)NC(=O)[C@@H](CCCNC(=N)N)NC(=O)[C@H](CC(=O)O)NC(=O)[C@H](Cc4ccccc4)NC(=O)CN(C)C3=O)cc2)cc1", "note": "[Example 455] ({CH2CO}-[Ala(morpholin-4-yl)][Bip][Bip(4'-NHAc)][Sar]FD[dR]VPV[Phe(3-CONH2)]LCG-NH2; thioether N-13)", "IC50": "50 to 200"}, {"smiles": "CC(=O)Nc1ccc(-c2ccc(C[C@@H]3NC(=O)[C@H](Cc4ccc(-c5ccccc5)cc4)NC(=O)[C@H](CN4CCOCC4)NC(=O)CSC[C@@H](C(=O)NCC(N)=O)NC(=O)[C@H](CC(C)C)NC(=O)[C@H](Cc4cccc(C(N)=O)c4)NC(=O)[C@H](C(C)C)NC(=O)[C@@H]4CCCN4C(=O)[C@H](C(C)C)NC(=O)[C@@H](CCCNC(=N)N)NC(=O)[C@H](CC(=O)O)NC(=O)[C@H](Cc4ccc(O)cc4)NC(=O)CN(C)C3=O)cc2)cc1", "note": "[Example 456] ({CH2CO}-[Ala(morpholin-4-yl)][Bip][Bip(4'-NHAc)][Sar]YD[dR]VPV[Phe(3-CONH2)]LCG-NH2; thioether N-13)", "IC50": "50 to 200"}, {"smiles": "CC(=O)Nc1ccc(-c2ccc(C[C@@H]3NC(=O)[C@H](Cc4ccc(-c5ccc(C(=O)O)cc5)cc4)NC(=O)[C@H](CN4CCOCC4)NC(=O)CSC[C@@H](C(=O)NCC(N)=O)NC(=O)[C@H](CC(C)C)NC(=O)[C@H](Cc4cccc(C(N)=O)c4)NC(=O)[C@H](C(C)C)NC(=O)[C@@H]4CCCN4C(=O)[C@H](C(C)C)NC(=O)[C@@H](CCCNC(=N)N)NC(=O)[C@H](CC(=O)O)NC(=O)[C@H](Cc4ccc(O)cc4)NC(=O)CN(C)C3=O)cc2)cc1", "note": "[Example 457] ({CH2CO}-[Ala(morpholin-4-yl)][Bip(4'-COOH)][Bip(4'-NHAc)][Sar]YD[dR]VPV[Phe(3-CONH2)]LCG-NH2; thioether N-13)", "IC50": "< 50"}, {"smiles": "CC(=O)Nc1ccc(-c2ccc(C[C@@H]3NC(=O)[C@H](Cc4ccc(-c5ccc(C(=O)O)cc5)cc4)NC(=O)[C@H](CN4CCOCC4)NC(=O)CSC[C@@H](C(=O)NCC(N)=O)NC(=O)[C@H](CC(C)C)NC(=O)[C@H](Cc4cccc(C(N)=O)c4)NC(=O)[C@H](C(C)C)NC(=O)[C@@H]4CCCN4C(=O)[C@H](C(C)C)NC(=O)[C@@H](CCCNC(=N)N)NC(=O)[C@H](CC(=O)O)NC(=O)[C@H](Cc4ccccc4)NC(=O)CN(C)C3=O)cc2)cc1", "note": "[Example 458] ({CH2CO}-[Ala(morpholin-4-yl)][Bip(4'-COOH)][Bip(4'-NHAc)][Sar]FD[dR]VPV[Phe(3-CONH2)]LCG-NH2; thioether N-13)", "IC50": "< 50"}, {"smiles": "CC(=O)Nc1ccc(-c2ccc(C[C@@H]3NC(=O)[C@H](Cc4ccc(-c5ccccc5)cc4)NC(=O)[C@H](CN4CCOCC4)NC(=O)CSC[C@@H](C(=O)NCC(N)=O)NC(=O)[C@H](CC(C)C)NC(=O)[C@H](Cc4cccc(C(N)=O)c4)NC(=O)[C@H](C4CCCCC4)NC(=O)[C@@H]4CCCN4C(=O)[C@H](C(C)C)NC(=O)[C@@H](CCCNC(=N)N)NC(=O)[C@H](CC(=O)O)NC(=O)[C@H](Cc4ccccc4)NC(=O)CN(C)C3=O)cc2)cc1", "note": "[Example 459] ({CH2CO}-[Ala(morpholin-4-yl)][Bip][Bip(4'-NHAc)][Sar]FD[dR]VP[Chg][Phe(3-CONH2)]LCG-NH2; thioether N-13)", "IC50": "50 to 200"}]}]}
